Laboratory results from patent publication US11986458B1, “Natural and synthetic andrographolides compounds for the treatment of skeletal muscular dystrophies” (Innobiosciences LLC, priority 2018, dated 2024).

Tests used:
MES-13 cells = conditions: cited from earlier work; for intracellular oxidative states: high glucose cultured MES-13 cells
mdx mice [1] = assay: Isometric force of isolated muscles from treated exercised mdx mice; format: in vivo, mouse; conditions: treadmill exercise, andrographolide 1.0 mg/kg/day ip, prednisone 5 mg/kg, single electro-stimulation and high frequency stimulation
Method: We used 12-week-old control or mdx male mice of the C57BL/10 ScSn strain. The animals were kept at room temperature with a 24-hour night-day cycle and were fed with pellets and water ad libitum. Experimental exercise involved running the mice on a treadmill three times per week for 30 minutes each session at 12 m/minute over three or four months. […]
The isometric force of isolated muscles was measured as described previously. Briefly, optimum muscle length (Lo) and stimulation voltage were determined from micromanipulation of muscle length to produce maximum isometric twitch force. Maximum isometric tetanic force (Po) was determined from the plateau of the frequency-force relationship after successive stimulations at 1 to 200 Hz for 450 ms, with 2-minute rests between stimuli. […]

mdx mouse = conditions: cited from earlier work
CTGF = conditions: in vitro (skeletal cells); cited from earlier work
mdx mice [2] = assay: Life expectancy / survival of mdx mice under life-long treatment; format: in vivo, mouse
Method: Groups of mdx mice were treated with or without andrographolide (1.0 mg/kg/day) 3 times per weeks starting at one month old until they die naturally. The animals were maintained under free food and water access all the time. Days of death was recorded.
To evaluate whether andrographolide affects survival in dystrophic mice we perform a long term treatment with andrographolide through intra-peritoneal injections, three times per weeks starting at one month old until they die naturally, in order to determine the effects over life expectancy in mdx mice.

[3] = tested on: patients with Duchenne Muscular Dystrophy; assay: PedsQL for Duchenne Muscular Dystrophy Module questionnaire in pediatric DMD patients; format: in vivo, human; conditions: 70 mg orally twice per day
Method: Thirteen pediatric patients were derived from the Chilean Duchenne Association with confirmed clinical diagnostic. Of the thirteen patients, seven of them used chronic glucocorticoid treatment (Table A). Two of the patients had disease advanced enough so that the patients were no longer ambulatory.
All patients, both those treated with glucocorticoid and those not requiring glucocorticoid, received 70 mg andrographolide (as a standardized extract) orally two times per day. Treatment periods ranged from one month to more than twelve months. […] (Table B)
Thirteen (13) children with DMD of different ages (ranging from 4 to 14 years old) were treated with Andrographis paniculata capsules (either taking corticosteroids or not) for a variable period of time (ranging from one month to two years) (Table A).
Each parent or tutor received a questionnaire with different scores parameters to be completed. The parents were asked to fill out the Pediatric Quality of Life Inventory TM questionnaire (PedsQL for Duchenne Muscular Dystrophy Module) of their perception about; Quality of life, Sleep, Pain, Cold, Walk/Move, Play/Run, Jump, Coordination, Force and Mood of children during Andrographis paniculata treatment (Table B).

mdx mice [4] = assay: Skeletal muscle histology (H&E) and collagen type I indirect immunofluorescence, tibialis anterior of mdx mice; format: in vivo, mouse; conditions: 3 months administration; for damaged areas in muscle, Hematoxylin and Eosin staining: tibialis anterior, compared to vehicle-treated mdx mice
Method: We used 12-week-old control or mdx male mice of the C57BL/10 ScSn strain. The animals were kept at room temperature with a 24-hour night-day cycle and were fed with pellets and water ad libitum. Experimental exercise involved running the mice on a treadmill three times per week for 30 minutes each session at 12 m/minute over three or four months. See Morales, MG. et al., Reducing CTGF/CCN2 Slows Down MDX Muscle Dystrophy And Improves Cell Therapy, 22 Hum Mol Genet 4938 (2013), DeLuca, A. et al., Enhanced Dystrophic Progression In MDX Mice By Exercise And Beneficial Effects Of Taurine And Insulin-Like Growth Factor-1, 304 J Pharmacol Exp Ther 453 (2003), DeLuca, A. et al., A Multidisciplinary Evaluation Of The Effectiveness Of Cyclosporine A In Dystrophic MDX Mice, 166 Am J Pathol 477 (2005), Cabello-Verrugio, C. et al., Angiotensin II Receptor Type 1 Blockade CTGF/CCN2-Mediated Damage And Fibrosis In Normal And Dytrophic Skeletal Muscles, 16 J Cell Mol Med 752 (2012). Four experimental groups were designed: animals in the first group were injected intraperitoneally (ip) with andrographolide (1.0 mg/kg/day). Animals in the second group were treated with prednisone (5 mg/kg). Third group, animals were treated with prednisone together with andrographolide. Fourth group animals were injected with saline. At the end of the experiment the muscles were dissected and removed under anesthesia (isofluorane gas) and then the animals were sacrificed. Tissues were used for electrophysiological measurement or rapidly frozen and stored at −80° C. until processing. All protocols were conducted in strict accordance with guidelines and with the formal approval of the Animal Ethics Committee of the Pontificia Universidad Católica de Chile.
Architecture and histology were detected by hematoxylin-eosin (H&E) stain in transverse sections of muscle. See Morales, MG. et al., CTGF/CCN-2 Over-Expression Can Directly Induce Features Of Skeletal Muscle Dystrophy, 225 J Pathol 490 (2011). Collagen Type I was determined as described in Morales, MG. et al., Reducing CTGF/CCN2 Slows Down MDX Muscle Dystrophy And Improves Cell Therapy, 22 Hum Mol Genet 4938 (2013).
Tissue samples evaluated using collagen type I immuno-staining. […] We posit that this prevents tissue damage in mdx mice.

[5] = tested on: cholestasis-induced apoptosis; conditions: in vivo; cited from earlier work
DMD = conditions: glucocorticoids such as prednisone; cited from earlier work
dystrophin [6] = conditions: cited from earlier work
dystrophin [7] = conditions: mdx mice; cited from earlier work
[8] = 12 DMD patients over a six-month period

Molecule: C=C1CCC2C(C)(CO)C(O)CCC2(C)C1C=CC1=CCOC1=O (stereo not drawn) [AP2, 14-deoxy-11,12-didehydro-andrographolide]
- reduction of apoptosis marker caspase-3, fibrosis marker TGF-β1, and PAI-1 (MES-13 cells; MES-13 cells, comparison AP2 vs AP1): more potent activity than AP1
- phenotypes indicating diabetic nephropathy (MES-13 cells; MES-13 cells): reduced the phenotypes indicating diabetic nephropathy
- antioxidant ability in a cellular environment (MES-13 cells): do not have antioxidant ability
- intracellular oxidative states (MES-13 cells): reduced intracellular oxidative states

Molecule: C=C1CC[C@@H]2[C@](C)(CO)[C@H](O)CC[C@@]2(C)[C@@H]1C/C=C1/C(=O)OC[C@H]1O [andrographolide, 3-[2-[Decahydro-6-hydroxy-5-(hydroxymethyl)-5,8a-dimethyl-2-methylene-1-napthalenyl]ethylidene]dihydro-4-hydroxy-2(3H)-furanone]
- phenotypes indicating diabetic nephropathy (MES-13 cells; MES-13 cells): reduced the phenotypes indicating diabetic nephropathy
- antioxidant ability in a cellular environment (MES-13 cells): do not have antioxidant ability
- intracellular oxidative states (MES-13 cells): reduced intracellular oxidative states
- isolated muscle strength (maximal switch force and tetanic contraction) (mdx mice [1]): improved muscle contraction at similar levels than the induced by prednisone
- muscle associated fibrosis (mdx mouse; animal model of DMD, the mdx mouse): significantly reduces muscle associated fibrosis
- exercise resistance in dystrophic mice (mdx mouse; mdx mouse): increase exercise resistance
- skeletal muscle force in dystrophic muscles (mdx mouse; mdx mouse): increase
- expression of pro-fibrotic factor CTGF (CTGF): able to inhibit
- total life expectancy (mdx mice [2]; mdx mice, 1.0 mg/kg/day ip three times per week from one month old until natural death, n=6): around 21.7±2.35 months
- increase of life expectancy of dystrophic mice (mdx mice [2]; versus vehicle-treated mdx mice): 15%
- improvement in quality of life, quality of sleep, pain, colds, coordination, force and mood ([3]; 13 DMD patients): important improvement
- overall effect on PedsQL parameters ([3]; all 13 DMD patients, one month to more than twelve months): slight to important improvement
- fibrosis, collagen type I immuno-staining (mdx mice [4]): diminish fibrosis
- damaged areas in muscle, Hematoxylin and Eosin staining (mdx mice [4]): prevented the increase of damaged areas
- protection against cholestasis-induced apoptosis [5]: potent protector

Molecule: C[C@]12C=CC(=O)C=C1CC[C@@H]1[C@@H]2C(=O)C[C@@]2(C)[C@H]1CC[C@]2(O)C(=O)CO [prednisone, reference compound]
- isolated muscle strength (maximal switch force and tetanic contraction) (mdx mice [1]): improved muscle contraction
- fibrosis, collagen type I immuno-staining (mdx mice [4]): diminish fibrosis
- damaged areas in muscle, Hematoxylin and Eosin staining (mdx mice [4]): prevented the increase of damaged areas
- side effects (DMD): severe side effects

Molecule: gentamicin
- clinical benefits (dystrophin [6]; [8]): no clinical benefits were observed
- patients with dystrophin expression detected (dystrophin [6]; [8]): 6 of the 12
- muscle strength and re-expression of dystrophin in muscles (dystrophin [6]; one of the studies on DMD patients): beneficial effect on muscle strength and a re-expression of dystrophin in muscles
- dystrophin expression in muscle fibers above normal levels (dystrophin [7]): 20%
